According to PubChem BioAssay AID1259411 (Chemical Carcinogenesis Research Information System (CCRIS), 2018):
The source made the active and inactive calls. How the calls were made is not given here.

System: rodent carcinogenicity bioassays, tumor incidence
Assay: CCRIS carcinogenicity studies
Details: Dose: 0
Procedure, shortened: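 Archive of carcinogenicity, mutagenicity, tumor promotion and tumor inhibition results drawn from journals, NCI reports and other sources, expert-reviewed; covers 1985-2011 and is no longer updated.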

With `CC(=O)CN(C)N=O` as the compound, how does the carcinogen call (Species: HAMSTER, Strain/Sex: SYRIAN/FEMALE, Route: GAVAGE, 0.5 MG IN 0.1 ML WATER 2/WK FOR 22 WK FOR A TOTAL DOSE OF 22 MG (STUDY DURATION: 45 WK), Tumor Site: Type of Lesion: LIVER: HEMANGIOSARCOMA, CHOLANGIOCELLULAR CARCINOMA, CHOLANGIOCELLULAR ADENOMA, NASAL MUCOSA: CARCINOMA) read?
The carcinogen call was “active; positive”.

And the carcinogen call (Species: HAMSTER, Strain/Sex: SYRIAN/FEMALE, Route: GAVAGE, 1 MG IN 0.1 ML WATER 2/WK FOR 11 WK FOR A TOTAL DOSE OF 22 MG (STUDY DURATION: 45 WK), Tumor Site: Type of Lesion: LIVER: TUMOR, NASAL MUCOSA: CARCINOMA)?
Its carcinogen call is “active; positive”.

What about the carcinogen call (Species: HAMSTER, Strain/Sex: SYRIAN/FEMALE, Route: GAVAGE, 2 MG IN 0.2 ML WATER 1/WK FOR 14 WK FOR A TOTAL DOSE OF 28 MG (STUDY DURATION: 17 WK), Tumor Site: Type of Lesion: LIVER: HEPATOCELLULAR ADENOMA, CHOLANGIOCELLULAR CARCINOMA OR ADENOMA, NASAL MUCOSA: CARCINOMA OR ADENOMA) of the same compound?
Its carcinogen call is “active; positive”.

What about the carcinogen call (Species: RAT, Strain/Sex: F344/FEMALE, Route: GAVAGE, 4 MG/WK FOR A TOTAL DOSE OF 0.5 MMOL (STUDY DURATION: 40 WK), Tumor Site: Type of Lesion: ESOPHAGUS: TUMOR) of the same compound?
Its carcinogen call is “active; positive”.

And the carcinogen call (Species: RAT, Strain/Sex: F344/MALE, Route: GAVAGE, 2, 4, 10 MG/WK FOR A TOTAL DOSE OF 0.5, 0.5, 0.9 MMOL (STUDY DURATION: 70 WK), 2, 4, 10 MG/WK FOR A TOTAL DOSE OF 0.5, 0.5, 0.9 MMOL (STUDY DURATION: 70 WK), Tumor Site: Type of Lesion: ESOPHAGUS: TUMOR)?
Its carcinogen call is “active; positive”.

Which carcinogen call (Species: MOUSE, Strain/Sex: ICR/FEMALE, Route: INTRAPERITONEAL, 8 NMOL IN 5 µL DMSO ON D 1, 16 NMOL IN 10 µL ON D 8 AND 32 NMOL IN 20 µL ON D 15 OF LIFE (STUDY DURATION: 35 WK)) does the source give for `CCCc1cc2ccccc2c2ccc3c(c12)C1OC1C(O)C3O` (centres undefined) here?
Its carcinogen call is “inactive; negative”.

And the carcinogen call (Species: MOUSE, Strain/Sex: ICR/MALE, Route: INTRAPERITONEAL, 8 NMOL IN 5 µL DMSO ON D 1, 16 NMOL IN 10 µL ON D 8 AND 32 NMOL IN 20 µL ON D 15 OF LIFE (STUDY DURATION: 35 WK))?
The carcinogen call was “inactive; negative”.

Which carcinogen call (Species: MOUSE, Strain/Sex: CD-1/FEMALE, Route: DERMAL, 50 UMOL/O.1 ML DMSO 2/WK FOR 5 WK FOLLOWED 1 WK LATER BY 0.1 ML ACETONE 2/WK FOR 47 WK (STUDY DURATION: 52 WK)) does the source give for `O=CC=O` here?
Its carcinogen call is “inactive; negative”.

With `NNc1ccc(C(=O)O)cc1` as the compound, how does the carcinogen call (Species: MOUSE, Strain/Sex: STRAIN-A/FEMALE, Route: ORAL, 1000 PPM IN DRINKING WATER FOR 26 WK (STUDY DURATION: 26 WK)) read?
The carcinogen call was “inactive; negative”.
